Experimental data published in US20030134859A1 (SANKYO COMPANY, LIMITED, priority 2000, published 2003).
Counter-ions that a name gives are not always drawn. Like-named read-outs stand apart in the source and are kept apart here.

Legend:
[1] = test system: human colon cancer cells COL-2-JCK; experiment: Inhibition of colony forming activity in human colon cancer cells; format: cell-based; settings: 1 μM test compound, 10 days, sum of colony areas vs control; for inhibition at 1 µM: Homo sapiens, 240 h, read-out: Inhibition Rate (%) against the colony forming activity
Procedure, shortened: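 COL-2-JCK cells seeded at 300 cells/well and grown 10 days at 37 °C, 5% CO2 with compound at 1 μM final (0.1% DMSO). Colonies stained with crystal violet in formalin; inhibition % = (1 − treated/control colony area)×100.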

[2] = test system: Balb/c mice; experiment: Prevention of concanavalin A liver injury; format: in vivo, mouse; settings: 10 mg/mL suspension at 10 mL/kg, 30 min prior to Con A, plasma 24 hr after Con A; for inhibition in vivo at 10000 µg/mL, 100 mg/kg: Mus musculus, po, 24 h
Procedure, shortened: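 Female Balb/c mice, 6-8 weeks, 5/group; compound suspended at 10 mg/mL in 0.5% CMC, given orally at 10 mL/kg 30 min before i.v. Con A (2.0 mg/mL, 10 mL/kg). Plasma AST and ALT measured 24 hr after Con A; inhibitory rate calculated against vehicle and untreated groups.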

[3] = read-out: Preventing rate against liver injury, ALT (%)
[4] = read-out: Preventing rate against liver injury, AST (%)

Row | Molecule | inhibition at 1 µM [1] | inhibition in vivo at 10000 µg/mL, 100 mg/kg [2, 3] | inhibition in vivo at 10000 µg/mL, 100 mg/kg [2, 4] | also measured
1 | O=C(Nc1ccc(-c2ccc([N+](=O)[O-])cc2)cc1)c1cc([N+](=O)[O-])ccc1Cl [Example 9, N-[4-(4-Nitrophenyl)phenyl)-(2-chloro-5-nitrophenyl)carboxamide] | 29% | – | – | –
2 | CCCc1ccc(NC(=O)c2cc([N+](=O)[O-])ccc2Cl)cc1 [Example 15, N-(4-Propylphenyl)-(2-chloro-5-nitrophenyl)carboxamide] | 14% | 39% | 54% | –
3 | O=C(Nc1ccc(OC(F)(F)F)cc1)c1cc([N+](=O)[O-])ccc1Cl [Example 18, N-(4-Trifluoromethyloxyphenyl)-(2-chloro-5-nitrophenyl)carboxamide] | – | 39.8% | 24.1% | –
4 | Cc1ccc(S(=O)(=O)Nc2ccc(NC(=O)c3cc([N+](=O)[O-])ccc3Cl)cc2)cc1 [Example 32, N-[4-(4-Methylbenzene)sulfonylaminophenyl]-(2-chloro-5-nitrophenyl)carboxamide] | – | – | – | Inhibition Rate (%) against the colony forming activity [1]: 39.0%
5 | O=C(Nc1nc2ccc([N+](=O)[O-])cc2s1)c1cc([N+](=O)[O-])ccc1Cl [Example 34, N-(6-Nitrobenzothiazol-2-yl)-(2-chloro-5-nitrophenyl)carboxamide] | 41% | – | – | –
6 | O=C(Nc1ccncc1)c1cc([N+](=O)[O-])ccc1Cl [Example 49, N-(4-Pyridyl)-(2-chloro-5-nitrophenyl)carboxamide] | – | 59% | 61% | –
7 | O=C(Nc1cnc2ccccc2c1)c1cc([N+](=O)[O-])ccc1Cl [Example 55, N-(3-Quinolinyl)-(2-chloro-5-nitrophenyl)carboxamide] | 8% | – | – | –
8 | O=C(Nc1nccc2ccccc12)c1cc([N+](=O)[O-])ccc1Cl [Example 59, N-(Isoquinolin-1-yl)-(2-chloro-5-nitrophenyl)carboxamide] | 94% | 18.7% | 20.5% | –
9 | O=C(Nc1nc2cc(Cl)ccc2o1)c1cc([N+](=O)[O-])ccc1Cl [Example 75, N-(5-Chlorobenzoxazol-2-yl)-(2-chloro-5-nitrophenyl)carboxamide] | 65% | – | – | –
10 | O=C(Nc1ncc(Br)cn1)c1cc([N+](=O)[O-])ccc1Cl [Example 77, N-(5-Bromopyrimidin-2-yl)-(2-chloro-5-nitrophenyl)carboxamide] | 1% | – | – | –
11 | Nc1ccc(-c2ccc(NC(=O)c3cc([N+](=O)[O-])ccc3Cl)cc2)cc1 [Example 88, N-[4-(4-Aminophenyl)phenyl]-(2-chloro-5-nitrophenyl)carboxamide mono-hydrochloride] | 8% | 42.3% | 57% | –
12 | Cc1c(C)c2c(c(C)c1O)C(=O)CC(C)(COc1ccc(NC(=O)c3cc([N+](=O)[O-])ccc3Cl)cc1)O2 (stereo not shown) [Example 92, N-[4-(6-Hydroxy-2,5,7,8-tetramethyl-4-oxochroman-2-ylmethoxy)phenyl]-(2-chloro-5-nitrophenyl)carboxamide] | 15% | – | – | –
13 | CS(=O)(=O)Nc1ccc(-c2ccc(NC(=O)c3cc([N+](=O)[O-])ccc3Cl)cc2)cc1 [Example 93, N-[4-[4-(Methanesulfonylamino)phenyl]phenyl]-(2-chloro-5-nitrophenyl)carboxamide] | 44% | – | – | –
14 | Cc1nnc(NS(=O)(=O)c2ccc(NC(=O)c3cc([N+](=O)[O-])ccc3Cl)cc2)s1 [Example 101, N-[4-[(5-Methyl-[1,3,4]thiadiazol-2-yl)aminosulfonyl]phenyl]-(2-chloro-5-nitrophenyl)carboxamide] | 32% | – | – | –
15 | Cc1noc(NS(=O)(=O)c2ccc(NC(=O)c3cc([N+](=O)[O-])ccc3Cl)cc2)c1C [Example 104, N-[4-[(3,4-Dimethylisoxazol-6-yl)aminosulfonyl]phenyl]-(2-chloro-5-nitrophenyl)carboxamide] | 22% | – | – | –
16 | O=C(Nc1ccc(N2CCCCC2)cc1)c1cc([N+](=O)[O-])ccc1Cl [Example 114, N-[4-(Piperidin-1-yl)phenyl]-(2-chloro-5-nitrophenyl)carboxamide] | 22% | 32.8% | 50.5% | –
17 | CC(=O)Nc1ccc(-c2ccc(NC(=O)c3cc([N+](=O)[O-])ccc3Cl)cc2)cc1 [Example 118, N-[4-(4-Acetylaminophenyl)phenyl]-(2-chloro-5-nitrophenyl)carboxamide] | 41% | 55.8% | 45% | –
18 | O=C(Nc1ccc(-c2ccc(NC(=O)c3cc([N+](=O)[O-])ccc3Cl)cc2)cc1)c1ccccc1 [Example 120, N-[4-(4-Benzoylaminophenyl)phenyl]-(2-chloro-5-nitrophenyl)carboxamide] | 44% | – | – | –
19 | Cc1ccc2nc(NC(=O)c3cc([N+](=O)[O-])ccc3Cl)sc2c1 [Example 141, N-(6-Methybenzothiazol-2-yl)-(2-chloro-5-nitrophenyl)carboxamide] | – | – | – | Inhibition Rate (%) against the colony forming activity [1]: 47.0%
20 | CCc1ccc(S(=O)(=O)Nc2ccc(NC(=O)c3cc([N+](=O)[O-])ccc3Cl)cc2)cc1 [Example 150, N-[4-(4-Ethylbenzenesulfonylamino)phenyl]-(2-chloro-5-nitrophenyl)carboxamide] | 41% | – | – | –
21 | CC(=O)c1cccc(NC(=O)c2cc([N+](=O)[O-])ccc2Cl)c1 [Example 156, N-(3-Acetylphenyl)-(2-chloro-5-nitrophenyl)carboxamide] | – | 85.5% | 82.6% | –
22 | O=C(Nc1ccc(C(=O)N2CCCCC2)cc1)c1cc([N+](=O)[O-])ccc1Cl [Example 159, N-[4-(Piperidylcarbonyl)phenyl]-(2-chloro-5-nitrophenyl)carboxamide] | – | 78.7% | 91.2% | –
23 | CC(C)(C)c1cc(NS(=O)(=O)c2cccc(NC(=O)c3cc([N+](=O)[O-])ccc3Cl)c2)cc(C(C)(C)C)c1O [Example 161, N-[3-[(3,5-di-tert-Butyl-4-hydroxyphenyl)aminosulfonyl]phenyl]-(2-chloro-5-nitrophenyl)carboxamide] | – | 82.8% | 69.3% | –
24 | N-[4-[4-(Pyrrolidin-1-ylamino)phenyl]phenyl]-(2-chloro-5-nitrophenyl)carboxamide [Example 171] | – | – | – | Preventing rate against liver injury, ALT (%) ([2]; oral): 90.0%; Preventing rate against liver injury, AST (%) ([2]; oral): 102.8%
